IC50 data for 2 compounds are collected here from patent publication US20240300973A1, “MODULATORS OF FPR1 AND METHODS OF USING THE SAME” (BIOFRONT THERAPEUTICS (BEIJING) CO., LTD., priority 2021, published 2024).

The target of this experiment is T1, FPR1 (UniProt P21462).
T1 sequence (P21462 1-350): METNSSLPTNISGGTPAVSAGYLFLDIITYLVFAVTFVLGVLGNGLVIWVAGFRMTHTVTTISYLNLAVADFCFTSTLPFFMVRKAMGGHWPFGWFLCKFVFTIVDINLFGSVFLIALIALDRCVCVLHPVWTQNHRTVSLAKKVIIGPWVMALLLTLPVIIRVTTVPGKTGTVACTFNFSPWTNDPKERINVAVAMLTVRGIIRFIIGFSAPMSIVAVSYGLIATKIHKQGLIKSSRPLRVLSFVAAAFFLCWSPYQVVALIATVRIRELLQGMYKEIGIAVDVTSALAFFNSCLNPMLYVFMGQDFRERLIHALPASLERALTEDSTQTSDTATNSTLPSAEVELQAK
Kind of experiment: fMLP-FPR1 mediated intracellular calcium signaling assay in FPR1-overexpressing 293T cells. Format: cell-based, human or mouse. To be noted: inhibition of fMLP-stimulated intracellular calcium change; hFPR1 or mFPR1 overexpressing 293T cells; 10 min pre-incubation; INDO-1 AM, FACS; read-out: IC50 (nM), potency in calcium signaling assay. How it is done:
The effects of the compounds of this disclosure on regulating the FPR1-mediated cell signaling were measured by monitoring the cellular calcium level change, as illustrated by the exemplary examples in Table 2. The dose responses of the illustrated examples are reported categorically using the following ranking criteria: *** (IC50≤100 nM); ** (IC50≥100 to ≤1000 nM); * (IC50≥1000 to ≤10,000 nM); N.D.—not detected.
The coding DNA sequence (CDS) of human FPR1 (NM_001193306) and mouse FPR1 (NM_013521) were cloned and inserted to the lentivirus vector GV367 (Vector information: • http://www.genechem.com.cn/index/supports/tool_search.html?keywords=GV367) under the conduction of pCMV promoter. 293T cells were cultured in H-DMEM supplemented with 10% FBS and 1% penicillin—streptomycin (PS) at 37° C. in 5% CO2 Incubator. […] The overexpression of human or mouse FPR1 in 293 T cells were detected by immunostaining with anti-mouse or human FPR1 antibodies (Biolegend or Antibody Online). […]
Cultured hFPR1 or mFPR1 overexpressing 293T cells were labeled with 1 μM INDO-1 AM calcium sensor dye (eBioscience) for 30 min at 37° C. […] The cytoplasmic calcium levels were then measured by FACS Aria III at 37° C. prior to and after the stimulation of fMLP. […] The change of intracellular calcium was calculated as follow: (basal value-minimum value)/basal value×100%. […]
(Calcium flux is commonly read through the fluorescence of an indicator in the cells.)

The term IC50 denotes the concentration that gives 50% inhibition. As to `Cc1ccc(O)c(-c2noc3c2C(c2ccc(C(F)(F)F)cc2)N(C2CCOCC2)C3=O)c1` (racemic) [Compound 2, rac-3-(2-hydroxy-5-methylphenyl)-5-(tetrahydro-2H-pyran-4-yl)-4-(4-(trifluoromethyl)phenyl)-4,5-dihydro-6H-pyrrolo[3,4-d]isoxazol-6-one], the IC50 is 100 to 1000 nM.

Turning to `Cc1ccc(O)c(-c2onc3c2C(c2ccc(C(F)(F)F)cc2)N(C2CCOCC2)C3=O)c1` (racemic) [Compound 1, rac-3-(2-hydroxy-5-methylphenyl)-5-(tetrahydro-2H-pyran-4-yl)-4-(4-(trifluoromethyl)phenyl)-4,5-dihydro-6H-pyrrolo[3,4-c]isoxazol-6-one], the IC50 lay in the range of 1000 to 10000 nM.
